In ChEMBL document CHEMBL2346657, “Synthesis of novel 2-amino-4-(5'-substituted 2'-phenyl-1H-indol-3'-yl)-6-aryl-4H-pyran-3-carbonitrile derivatives as antimicrobial and antioxidant agents” (2013):
The source made the active and inactive calls. How the calls were made is not given here.

Tests used:
Type in all cases: functional
Aspergillus oryzae [1] = assay: Antimicrobial activity against Aspergillus oryzae MTCC 3567 at 1000 ug/ml after 72 hrs by cup plate method; conditions: MTCC 3567, 72 h, read-out: IZ
Pseudomonas aeruginosa [2] = assay: Antimicrobial activity against Pseudomonas aeruginosa MTCC 1688 at 500 ug/ml after 24 hrs by cup plate method; conditions: MTCC 1688, 24 h, read-out: IZ
[3] = Antioxidant activity assessed as metal chelating activity by measuring inhibition of ferrozine-Fe2+ complex formation at 25 to 100 ug/ml
Klebsiella pneumoniae [4] = assay: Antimicrobial activity against Klebsiella pneumoniae NCTC 13368 at 500 ug/ml after 24 hrs by cup plate method; conditions: NCTC 13368, 24 h, read-out: IZ
Klebsiella pneumoniae [5] = assay: Antimicrobial activity against Klebsiella pneumoniae NCTC 13368 at 1000 ug/ml after 24 hrs by cup plate method; conditions: NCTC 13368, 24 h, read-out: IZ
Staphylococcus aureus [6] = assay: Antimicrobial activity against Staphylococcus aureus ATCC 29513 at 750 ug/ml after 24 hrs by cup plate method; conditions: ATCC 29513, 24 h, read-out: IZ
Aspergillus terreus [7] = assay: Antimicrobial activity against Aspergillus terreus MTCC 1782 at 750 ug/ml after 72 hrs by cup plate method; conditions: MTCC 1782, 72 h, read-out: IZ
Aspergillus flavus [8] = assay: Antimicrobial activity against Aspergillus flavus MTCC 1973 at 1000 ug/ml after 72 hrs by cup plate method; conditions: MTCC 1973, 72 h, read-out: IZ
Aspergillus flavus [9] = assay: Antimicrobial activity against Aspergillus flavus MTCC 1973 at 750 ug/ml after 72 hrs by cup plate method; conditions: MTCC 1973, 72 h, read-out: IZ
Aspergillus oryzae [10] = assay: Antimicrobial activity against Aspergillus oryzae MTCC 3567 at 750 ug/ml after 72 hrs by cup plate method; conditions: MTCC 3567, 72 h, read-out: IZ
Escherichia coli [11] = assay: Antimicrobial activity against Escherichia coli MTCC 723 at 750 ug/ml after 24 hrs by cup plate method; conditions: MTCC 723, 24 h, read-out: IZ
Aspergillus flavus [12] = assay: Antimicrobial activity against Aspergillus flavus MTCC 1973 at 500 ug/ml after 72 hrs by cup plate method; conditions: MTCC 1973, 72 h, read-out: IZ
Escherichia coli [13] = assay: Antimicrobial activity against Escherichia coli MTCC 723 at 1000 ug/ml after 24 hrs by cup plate method; conditions: MTCC 723, 24 h, read-out: IZ
Staphylococcus aureus [14] = assay: Antimicrobial activity against Staphylococcus aureus ATCC 29513 at 1000 ug/ml after 24 hrs by cup plate method; conditions: ATCC 29513, 24 h, read-out: IZ
Aspergillus niger [15] = assay: Antimicrobial activity against Aspergillus niger MTCC 281 at 1000 ug/ml after 72 hrs by cup plate method; conditions: MTCC 281, 72 h, read-out: IZ
Aspergillus terreus [16] = assay: Antimicrobial activity against Aspergillus terreus MTCC 1782 at 500 ug/ml after 72 hrs by cup plate method; conditions: MTCC 1782, 72 h, read-out: IZ
Aspergillus niger [17] = assay: Antimicrobial activity against Aspergillus niger MTCC 281 at 750 ug/ml after 72 hrs by cup plate method; conditions: MTCC 281, 72 h, read-out: IZ
Aspergillus niger [18] = assay: Antimicrobial activity against Aspergillus niger MTCC 281 at 500 ug/ml after 72 hrs by cup plate method; conditions: MTCC 281, 72 h, read-out: IZ
Aspergillus oryzae [19] = assay: Antimicrobial activity against Aspergillus oryzae MTCC 3567 at 500 ug/ml after 72 hrs by cup plate method; conditions: MTCC 3567, 72 h, read-out: IZ
Staphylococcus aureus [20] = assay: Antimicrobial activity against Staphylococcus aureus ATCC 29513 at 500 ug/ml after 24 hrs by cup plate method; conditions: ATCC 29513, 24 h, read-out: IZ
Pseudomonas aeruginosa [21] = assay: Antimicrobial activity against Pseudomonas aeruginosa MTCC 1688 at 1000 ug/ml after 24 hrs by cup plate method; conditions: MTCC 1688, 24 h, read-out: IZ
Pseudomonas aeruginosa [22] = assay: Antimicrobial activity against Pseudomonas aeruginosa MTCC 1688 at 750 ug/ml after 24 hrs by cup plate method; conditions: MTCC 1688, 24 h, read-out: IZ
Aspergillus terreus [23] = assay: Antimicrobial activity against Aspergillus terreus MTCC 1782 at 1000 ug/ml after 72 hrs by cup plate method; conditions: MTCC 1782, 72 h, read-out: IZ
Escherichia coli [24] = assay: Antimicrobial activity against Escherichia coli MTCC 723 at 500 ug/ml after 24 hrs by cup plate method; conditions: MTCC 723, 24 h, read-out: IZ
Klebsiella pneumoniae [25] = assay: Antimicrobial activity against Klebsiella pneumoniae NCTC 13368 at 750 ug/ml after 24 hrs by cup plate method; conditions: NCTC 13368, 24 h, read-out: IZ

Structure (SMILES)	zone of inhibition at 1000 µg/mL (Aspergillus oryzae [1]) [mm]	zone of inhibition at 500 µg/mL (Pseudomonas aeruginosa [2]) [mm]	Activity [3]	zone of inhibition at 500 µg/mL (Klebsiella pneumoniae [4]) [mm]	zone of inhibition at 1000 µg/mL (Klebsiella pneumoniae [5]) [mm]	zone of inhibition at 750 µg/mL (Staphylococcus aureus [6]) [mm]	zone of inhibition at 750 µg/mL (Aspergillus terreus [7]) [mm]	zone of inhibition at 1000 µg/mL (Aspergillus flavus [8]) [mm]	zone of inhibition at 750 µg/mL (Aspergillus flavus [9]) [mm]	zone of inhibition at 750 µg/mL (Aspergillus oryzae [10]) [mm]	zone of inhibition at 750 µg/mL (Escherichia coli [11]) [mm]	zone of inhibition at 500 µg/mL (Aspergillus flavus [12]) [mm]	zone of inhibition at 1000 µg/mL (Escherichia coli [13]) [mm]	zone of inhibition at 1000 µg/mL (Staphylococcus aureus [14]) [mm]	zone of inhibition at 1000 µg/mL (Aspergillus niger [15]) [mm]	zone of inhibition at 500 µg/mL (Aspergillus terreus [16]) [mm]	zone of inhibition at 750 µg/mL (Aspergillus niger [17]) [mm]	zone of inhibition at 500 µg/mL (Aspergillus niger [18]) [mm]	zone of inhibition at 500 µg/mL (Aspergillus oryzae [19]) [mm]	zone of inhibition at 500 µg/mL (Staphylococcus aureus [20]) [mm]	other results
Nc1n[nH]c2c1C(c1c(-c3ccccc3)[nH]c3ccc(Cl)cc13)C=C(c1ccccc1)O2 (stereo not given)	12	12	Active	6	5	8	3	9	12	12	7	12	9	8	5	2	5	6	12	10	zone of inhibition at 1000 µg/mL (Pseudomonas aeruginosa [21]): 13 mm; zone of inhibition at 750 µg/mL (Pseudomonas aeruginosa [22]): 12 mm; zone of inhibition at 1000 µg/mL (Aspergillus terreus [23]): 3 mm; zone of inhibition at 500 µg/mL (Escherichia coli [24]): 7 mm; zone of inhibition at 750 µg/mL (Klebsiella pneumoniae [25]): 5 mm
N#Cc1c(N)c2c(N)c3c(nc2oc1=O)OC(c1ccc(Cl)cc1)=CC3c1c(-c2ccccc2)[nH]c2ccccc12 (stereo not given)	13	10	Active	13	13	11	10	8	0	13	3	0	12	12	5	10	5	7	12	12	zone of inhibition at 1000 µg/mL (Pseudomonas aeruginosa [21]): 9 mm; zone of inhibition at 750 µg/mL (Pseudomonas aeruginosa [22]): 9 mm; zone of inhibition at 1000 µg/mL (Aspergillus terreus [23]): 11 mm; zone of inhibition at 500 µg/mL (Escherichia coli [24]): 3 mm; zone of inhibition at 750 µg/mL (Klebsiella pneumoniae [25]): 13 mm
Cc1ccc(C2=CC(c3c(-c4ccccc4)[nH]c4ccc(C)cc34)c3c(nc4oc(=O)c(C#N)c(N)c4c3N)O2)cc1 (stereo not given)	10	9	Active	11	10	3	4	13	12	11	10	12	10	0	0	9	0	0	10	3	zone of inhibition at 1000 µg/mL (Pseudomonas aeruginosa [21]): 4 mm; zone of inhibition at 750 µg/mL (Pseudomonas aeruginosa [22]): 6 mm; zone of inhibition at 1000 µg/mL (Aspergillus terreus [23]): 4 mm; zone of inhibition at 500 µg/mL (Escherichia coli [24]): 10 mm; zone of inhibition at 750 µg/mL (Klebsiella pneumoniae [25]): 10 mm
Nc1nc(=S)[nH]c2c1C(c1c(-c3ccccc3)[nH]c3ccccc13)C=C(c1ccccc1)O2 (stereo not given)	8	2	Active	9	8	2	5	9	9	8	10	9	11	0	14	5	12	12	9	2	zone of inhibition at 1000 µg/mL (Pseudomonas aeruginosa [21]): 2 mm; zone of inhibition at 750 µg/mL (Pseudomonas aeruginosa [22]): 2 mm; zone of inhibition at 1000 µg/mL (Aspergillus terreus [23]): 5 mm; zone of inhibition at 500 µg/mL (Escherichia coli [24]): 10 mm; zone of inhibition at 750 µg/mL (Klebsiella pneumoniae [25]): 8 mm
Nc1nc(=O)[nH]c2c1C(c1c(-c3ccccc3)[nH]c3ccccc13)C=C(c1ccccc1)O2 (stereo not given)	10	12	Active	10	10	10	4	9	9	10	8	10	5	5	3	6	5	5	10	10	zone of inhibition at 1000 µg/mL (Pseudomonas aeruginosa [21]): 13 mm; zone of inhibition at 750 µg/mL (Pseudomonas aeruginosa [22]): 12 mm; zone of inhibition at 1000 µg/mL (Aspergillus terreus [23]): 3 mm; zone of inhibition at 500 µg/mL (Escherichia coli [24]): 10 mm; zone of inhibition at 750 µg/mL (Klebsiella pneumoniae [25]): 10 mm
Cc1ccc(C2=CC(c3c(-c4ccccc4)[nH]c4ccccc34)c3c(nc4oc(=O)c(C#N)c(N)c4c3N)O2)cc1 (stereo not given)	6	5	Active	12	10	5	5	0	0	6	8	0	8	3	8	10	2	2	6	8	zone of inhibition at 1000 µg/mL (Pseudomonas aeruginosa [21]): 9 mm; zone of inhibition at 750 µg/mL (Pseudomonas aeruginosa [22]): 5 mm; zone of inhibition at 1000 µg/mL (Aspergillus terreus [23]): 3 mm; zone of inhibition at 500 µg/mL (Escherichia coli [24]): 9 mm; zone of inhibition at 750 µg/mL (Klebsiella pneumoniae [25]): 11 mm
Nc1n[nH]c2c1C(c1c(-c3ccccc3)[nH]c3ccccc13)C=C(c1ccccc1)O2 (stereo not given)	10	12	Active	10	8	2	5	3	10	5	9	10	9	2	6	5	5	5	6	2	zone of inhibition at 1000 µg/mL (Pseudomonas aeruginosa [21]): 12 mm; zone of inhibition at 750 µg/mL (Pseudomonas aeruginosa [22]): 12 mm; zone of inhibition at 1000 µg/mL (Aspergillus terreus [23]): 5 mm; zone of inhibition at 500 µg/mL (Escherichia coli [24]): 10 mm; zone of inhibition at 750 µg/mL (Klebsiella pneumoniae [25]): 9 mm
Cc1ccc(C2=CC(c3c(-c4ccccc4)[nH]c4ccc(C)cc34)c3c(N)nc(=S)[nH]c3O2)cc1 (stereo not given)	5	6	Active	6	5	0	5	9	8	5	4	9	4	0	0	5	0	0	5	0	zone of inhibition at 1000 µg/mL (Pseudomonas aeruginosa [21]): 5 mm; zone of inhibition at 750 µg/mL (Pseudomonas aeruginosa [22]): 5 mm; zone of inhibition at 1000 µg/mL (Aspergillus terreus [23]): 5 mm; zone of inhibition at 500 µg/mL (Escherichia coli [24]): 5 mm; zone of inhibition at 750 µg/mL (Klebsiella pneumoniae [25]): 5 mm
